The values that follow come from ChEMBL document CHEMBL4004795, “Polycycloiridals with a Cyclopentane Ring from Iris tectorum” (J Nat Prod, 2017).

In experiment [1] the test system is BV-2. In words: Inhibition of LPS-induced nitric oxide production in mouse BV2 cells pretreated for 24 hrs followed by LPS-stimulation after 24 hrs by Griess assay. Format: functional, cell-based. (The Griess reaction detects nitrite, a stable product of nitric oxide.)
The test system of experiment [2] is BV-2. The experiment in a line: Potency index, ratio of curcumin IC50 to compound IC50 for inhibition of LPS-induced nitric oxide production in mouse BV2 cells. Format: functional.

In the case of `CC(/C=C/[C@@H]1[C@@H](C(C)(C)O)CC[C@@]1(C)O)=C\[C@H]1C[C@@]23[C@H](OCCC[C@@H]2/C(=C(\C)C=O)CC[C@]3(C)O)O1`, the IC50 in the experiment on BV-2 [1] was greater than 10 µM.
`CC(C)=CCC/C(C)=C\[C@H]1C=C(CO)[C@@H]2CC[C@]3([C@H](CCCO)/C(=C(/C)C=O)CC[C@]3(C)O)[C@@H]2O1`: in the experiment with BV-2 [1], the IC50 was 0.54 µM. In addition, the “Ratio IC50” value with BV-2 [2] is reported as 3.
For the molecule `C=C(C)[C@@H]1CC[C@](C)(O)[C@H]1/C=C/C(C)=C/[C@H]1C[C@@]23[C@H](OCCC[C@@H]2/C(=C(/C)C=O)CC[C@]3(C)O)O1`, the IC50 in the experiment on BV-2 [1] was greater than 10 µM.
Same read-out and setting: for `C=C(C)[C@H]1CC[C@@](C)(O)[C@@H]1/C=C/C(C)=C/[C@H]1C[C@@]23[C@H](OCCC[C@@H]2/C(=C(/C)C=O)CC[C@]3(C)O)O1` the value was greater than 10 µM.
Same read-out and setting: in the case of `CC(/C=C/[C@H]1[C@H](C(C)(C)O)CC[C@]1(C)O)=C\[C@H]1C[C@@]23[C@H](OCCC[C@@H]2/C(=C(\C)C=O)CC[C@]3(C)O)O1` it was greater than 10 µM.
The same measure, in the same setting: in the case of `COc1cc(/C=C/C(=O)CC(=O)/C=C/c2ccc(O)c(OC)c2)ccc1O` [CURCUMIN] it was 2.36 µM.
Consider `C=C(C)[C@H]1CC[C@@](C)(O)[C@@H]1/C=C/C(C)=C/[C@H]1C[C@@]23[C@H](OCCC[C@@H]2/C(=C(\C)C=O)CC[C@]3(C)O)O1`, for which, in the experiment with BV-2 [1], the IC50 was greater than 10 µM.
Still for that read-out and setting: in the case of `C/C(C=O)=C1\CC[C@](C)(O)[C@]23C[C@H](/C=C(C)/C=C/[C@@H]4[C@@H](C(C)(C)O)CC[C@@]4(C)O)O[C@H]2OCCC[C@H]13` it was greater than 10 µM.

For orientation: IC50 means the concentration at which inhibition is half-maximal.
